Results published in the supplement of paper PMC10307832.

Assays:
Experiment in all cases: relative viability (nuclei count vs DMSO), 5 days (fraction); higher = more cells survive
[1] = compound: C[C@@H](C(=O)N[C@@H](C1CCCCC1)C(=O)N2CCC[C@H]2C(=O)N[C@@H]3[C@@H](CC4=CC=CC=C34)OCC#CC#CCO[C@@H]5CC6=CC=CC=C6[C@@H]5NC(=O)[C@@H]7CCCN7C(=O)[C@H](C8CCCCC8)NC(=O)[C@H](C)NC)NC [AZD5582] + COc1cc2c(Oc3ccc(NC(=O)C4(C(=O)Nc5ccc(F)cc5)CC4)cc3F)ccnc2cc1OCCCN1CCOCC1 [Foretinib] (partner 0.25 µM)
How it was run: (§1)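 For relative viability, nuclei counts in treated wells were divided by those in vehicle wells. Lung cancer cell lines had been pin-tool dosed in 1536-well plates the day after seeding and cultured for 5 days, then fixed and stained in one step (final 0.05% Triton X-100, 1% formaldehyde, 1 ug/ml Hoechst) and imaged at 4×. Doses were one drug alone or a fixed anchor-drug dose plus five library-drug doses (not always all listed) in √10 steps, and values are duplicate-plate medians.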

[2] = compound: C[C@@H](C(=O)N[C@@H](C1CCCCC1)C(=O)N2CCC[C@H]2C(=O)N[C@@H]3[C@@H](CC4=CC=CC=C34)OCC#CC#CCO[C@@H]5CC6=CC=CC=C6[C@@H]5NC(=O)[C@@H]7CCCN7C(=O)[C@H](C8CCCCC8)NC(=O)[C@H](C)NC)NC [AZD5582] + C[C@@H](Oc1cc(-c2cnn(C3CCNCC3)c2)cnc1N)c1c(Cl)ccc(F)c1Cl [Crizotinib] (partner 1 µM)
How it was run: as §1

[3] = compound: Cn1nnc2c(C(N)=O)ncn2c1=O [Temozolomide] + CC(=O)Nc1cccc(-n2c(=O)n(C3CC3)c(=O)c3c(Nc4ccc(I)cc4F)n(C)c(=O)c(C)c32)c1 [Trametinib] (partner 0.02 µM)
How it was run: as §1

[4] = compound: Cn1nnc2c(C(N)=O)ncn2c1=O [Temozolomide] + CS(=O)(=O)N1CCN(Cc2cc3nc(-c4cccc5[nH]ncc45)nc(N4CCOCC4)c3s2)CC1 [Pictilisib] (partner 1 µM)
How it was run: as §1

Row | Cell Line | relative viability ([1]; first compound 0.001581 µM) | relative viability ([1]; first compound 0.005 µM) | relative viability ([1]; first compound 0.01581 µM) | relative viability ([1]; first compound 0.05 µM) | relative viability ([2]; first compound 0.001581 µM) | relative viability ([2]; first compound 0.005 µM) | relative viability ([2]; first compound 0.01581 µM) | relative viability ([2]; first compound 0.05 µM) | relative viability ([3]; first compound 0.2 µM) | relative viability ([3]; first compound 0.6325 µM) | relative viability ([3]; first compound 2 µM) | relative viability ([3]; first compound 6.325 µM) | relative viability ([3]; first compound 20 µM) | relative viability ([4]; first compound 0.2 µM) | relative viability ([4]; first compound 0.6325 µM) | relative viability ([4]; first compound 2 µM) | relative viability ([4]; first compound 6.325 µM) | relative viability ([4]; first compound 20 µM)
1 | NCI-H2085 | 1.06 | 0.776 | 0.924 | 0.698 | 0.732 | 0.874 | 0.854 | 0.754 | 0.527 | 0.438 | 0.621 | 0.513 | 0.581 | 0.452 | 0.434 | 0.551 | 0.453 | 0.442
2 | HOP-62 | 1.01 | 1.11 | 1.06 | 1.05 | 0.781 | 1.05 | 1 | 0.875 | 0.395 | 0.445 | 0.399 | 0.424 | 0.367 | 0.918 | 0.961 | 0.816 | 0.385 | 0.545
3 | NCI-H2126 | 1.15 | 1.19 | 1.05 | 0.969 | 1.04 | 0.932 | 0.967 | 0.662 | 0.561 | 0.588 | 0.624 | 0.555 | 0.623 | 0.475 | 0.554 | 0.489 | 0.511 | 0.457
4 | LXF-289 | 0.941 | 0.944 | 1.03 | 0.977 | 0.75 | 0.788 | 0.788 | 0.725 | 0.693 | 0.693 | 0.683 | 0.653 | 0.667 | 0.814 | 0.788 | 0.823 | 0.737 | 0.655
5 | HCC-366 | 0.947 | 0.978 |  | 1 | 0.476 | 0.517 | 0.56 | 0.635 | 0.395 | 0.31 | 0.427 | 0.425 | 0.329 | 0.164 | 0.152 | 0.198 | 0.212 | 0.219
6 | RERF-LC-KJ | 0.758 | 0.836 | 0.855 | 0.924 | 0.525 | 0.516 | 0.792 | 0.782 | 0.788 | 0.815 | 0.763 | 0.845 | 0.826 | 0.625 | 0.564 | 0.557 | 0.501 | 0.467
7 | NCI-H661 | 0.954 | 0.982 | 1.03 | 0.98 | 0.902 | 0.845 | 1.04 | 0.892 | 0.513 | 0.564 | 0.654 | 0.528 | 0.562 | 0.313 | 0.371 | 0.39 | 0.388 | 0.39
8 | NCI-H1395 | 0.979 | 1.14 | 1.04 | 1.14 |  |  |  |  | 0.815 | 1.06 | 1.17 | 0.986 | 1.02 | 0.554 | 0.631 | 0.719 | 0.612 | 0.572
9 | SW 900 | 0.866 | 0.666 | 0.895 | 0.451 |  |  |  |  | 0.728 | 0.783 | 0.966 | 1 | 0.59 |  |  |  |  | 
10 | COR-L23 | 0.963 | 0.887 | 0.87 | 1.1 | 0.539 | 0.682 | 0.629 | 0.796 | 0.624 | 0.614 | 0.641 | 0.534 | 0.545 | 1.01 | 0.771 | 0.961 | 0.829 | 0.715
11 | NCI-H1650 | 0.971 | 1.33 | 1.27 | 0.889 | 0.904 | 0.964 | 0.88 | 0.736 | 0.618 | 0.654 | 0.611 | 0.642 | 0.39 | 0.661 | 0.611 | 0.55 | 0.579 | 0.478
12 | HCC-44 |  |  |  |  | 0.5 | 0.457 | 0.793 | 0.378 | 1.06 | 1.16 | 1.08 | 1.05 | 0.956 | 0.599 | 0.611 | 0.69 | 0.566 | 0.534
13 | Calu-6 | 0.695 | 0.523 | 0.826 | 0.437 | 0.432 | 0.384 | 0.837 | 0.336 |  |  |  |  |  | 1.21 | 0.939 | 0.883 | 0.867 | 0.974
14 | NCI-H1623 | 0.831 | 0.971 | 0.917 | 0.888 |  |  |  |  |  |  |  |  |  |  |  |  |  | 
15 | NCI-H1563 | 0.897 | 0.958 | 0.894 | 0.924 | 0.8 | 0.86 | 0.852 | 0.978 |  |  |  |  |  | 0.654 | 0.619 | 0.642 | 0.609 | 0.664
16 | NCI-H1299 | 1.05 | 1.11 | 1.04 | 1.03 | 0.895 | 0.895 | 0.994 | 0.901 |  |  |  |  |  | 0.823 | 0.8 | 0.744 | 0.784 | 0.847
17 | EBC-1 | 0.098 | 0.101 | 0.11 | 0.107 | 0.178 | 0.233 | 0.181 | 0.208 |  |  |  |  |  | 0.493 | 0.358 | 0.388 | 0.387 | 0.416
18 | A549 | 0.821 | 1.13 | 0.938 | 1.14 | 0.504 | 0.923 | 0.667 | 0.826 |  |  |  |  |  | 0.61 | 0.471 | 0.525 | 0.507 | 0.504
19 | NCI-H1793 | 0.737 | 0.827 | 0.572 | 0.908 |  |  |  |  |  | 0.463 | 0.465 | 0.335 | 0.414 |  | 0.294 | 0.286 | 0.292 | 0.309
20 | NCI-H522 |  |  |  |  |  |  |  |  | 0.654 | 0.724 | 0.954 | 0.691 | 0.671 |  |  |  |  | 
21 | NCI-H1792 |  |  |  |  | 0.903 | 1.01 | 0.908 | 1.08 | 0.389 | 0.441 | 0.471 | 0.317 | 0.517 | 0.199 | 0.304 | 0.241 | 0.314 | 0.256
